Measurements: patent US11013740B2, “Histone deacetylase 6 selective inhibitors for the treatment of cisplatin-induced peripheral neuropathy” (REGENACY PHARMACEUTICALS, LLC, priority 2015, dated 2021)

Experiments:
[1] = test system: cisplatin-induced numbness; test: Adhesive removal test (ART) for numbness; assay type: in vivo, mice; conditions: treatment starting after two rounds of cisplatin; tested in week 5
Procedure: To quantify signs of cisplatin-induced pain, the von Frey test was used (see below) which measures the decrease in threshold to induce a withdrawal response to a mechanical stimulus (hyperalgesia, one of the characteristics of CIPN). To assess cisplatin-induced numbness, the adhesive removal test (ART) was used. The time it took for the mouse to have a behavioral response to the patch (i.e. shaking or attempted removal) was recorded as a measure of sensory deficit or numbness. To determine if behavioral changes were due to altered general activity or motor function, the locomotor activity (LMA) test and the rotarod test was used. For LMA mice were placed in an open-field testing cage and movement was measured for 5 minutes. For the rotarod, mice were trained for two days and then tested on the rotarod (with increasing speeds) for 5 minutes. Time on the rotarod was recorded. […] The time it took for the mouse to display a behavioral response to the patch (i.e. shaking or attempted removal) was recorded. […]

motor function = test: Rotarod test; assay type: in vivo, mice; conditions: in combination with cisplatin
Procedure: To quantify signs of cisplatin-induced pain, the von Frey test was used (see below) which measures the decrease in threshold to induce a withdrawal response to a mechanical stimulus (hyperalgesia, one of the characteristics of CIPN). To assess cisplatin-induced numbness, the adhesive removal test (ART) was used. The time it took for the mouse to have a behavioral response to the patch (i.e. shaking or attempted removal) was recorded as a measure of sensory deficit or numbness. To determine if behavioral changes were due to altered general activity or motor function, the locomotor activity (LMA) test and the rotarod test was used. For LMA mice were placed in an open-field testing cage and movement was measured for 5 minutes. For the rotarod, mice were trained for two days and then tested on the rotarod (with increasing speeds) for 5 minutes. Time on the rotarod was recorded.

Cox IV, SDHA and VDAC = test: Western blot of mitochondrial marker proteins in tibial nerves; assay type: in vivo; conditions: cisplatin-treated mice, 11 injections of compound
Procedure: (§1) Tibial nerves retrieved from the XF24 assay plate were used for western blot analysis of levels of acetylated α-tubulin and mitochondrial proteins cytochrome c oxidase subunit IV (Cox IV), succinate dehydrogenase complex subunit A (SDHA) and voltage-dependent anion channel (VDAC). Tissues were homogenized in RIPA buffer (50 mM Tris-HCl, pH 7.5, 500 mM NaCl, 2.5 mM MgCl2, 1% NP-40, 10% glycerol) containing proteinase inhibitors by sonication and 10 μg of protein was separated by SDS/PAGE and transferred to PVDF membrane for immunoblot analyses. The membranes were blocked with 5% non-fat dry milk in PBST (phosphate-buffered saline containing 0.1% Tween 20) and probed with primary antibodies recognizing acetylated lysine (Rabbit monoclonal; Abcam, Cambridge, United Kingdom), α-tubulin (Rabbit polyclonal; Cell Signaling Technology, Danvers, Mass.), Cox IV (Mouse monoclonal; Life Technologies, Carlsbad, Calif.), SDHA (Rabbit polyclonal; Cell Signaling Technology, Danvers, Mass.) and VDAC (Rabbit polyclonal; Cell Signaling Technology, Danvers, Mass.) followed by HRP-conjugated anti-mouse, anti-rabbit, or anti-β-actin antibodies (Jackson Laboratory, Bar Harbor, Me.). […] The images were acquired using ImageQuant LAS 4000 (GE Healthcare Life Sciences, Little Chalfont, United Kingdom) and densitometrically analyzed using Image J software.

acetylated α-tubulin = test: Western blot of acetylated α-tubulin in tibial nerves; assay type: in vivo; conditions: saline+compound and cisplatin+compound treated mice, 11 doses
Procedure: as §1

IENF density = test: Intra-epidermal nerve fiber (IENF) density in hind paw biopsies; assay type: in vivo, mice
Text: For quantification of IENFs, biopsies from the plantar surface of the hind paws were collected after 3 doses or 11 doses of compound 001 or vehicle and processed as described previously (Qi-Liang Mao-Ying A K, et al. The anti-diabetic drug metformin protects against chemotherapy-induced peripheral neuropathy in a mouse model. Clinical Cancer Research. 2014); Krukowski K, et al. Prevention of chemotherapy-induced peripheral neuropathy by the small-molecule inhibitor pifithrin-mu. Pain. 2015; 156(11):2184-92). In brief, biopsies were fixed in Zamboni's fixative, cryoprotected in 20% sucrose and then frozen in Optimal Cutting Temperature compound (Sakura Finetek USA, Inc., Torrance, Calif.). 25-μm frozen sections were incubated with antibodies against the pan neuronal marker PGP9.5 (Rabbit; AbD Serotec, Oxford, United Kingdom) and Collagen IV (Goat; Southern Biotech, Birmingham, Ala.) followed by Alexa-594 donkey anti-rabbit (Life Technologies, Carlsbad, Calif.) and Alexa-488 donkey anti-goat (Invitrogen, Grand Island, N.Y.). Three randomly chosen sections from each mouse were imaged and quantified under a Leica SPE confocal microscope (Leica Microsystems, Buffalo Grove, Ill.). Nerve fibers that crossed the collagen-stained dermal/epidermal junction into the epidermis were counted and IENF density was determined as the total number of fibers/length of epidermis (IENFs/mm).

## O=C(NO)c1cnc(NC2(c3ccccc3)CCC(F)(F)CC2)nc1 [compound 001]
[1]
  time to behavioral response to adhesive patch (numbness): normalized the response time in this test
Motor function
  motor function (rotarod): no effect
Cox IV, SDHA and VDAC
  Cox IV level in tibial nerve: normalized Cox IV levels in the tibial nerve
Acetylated α-tubulin
  α-tubulin acetylation in tibial nerves: increased α-tubulin acetylation
IENF density; 2 cycles of cisplatin and 11 doses of compound
  IENF density, prolonged regimen: completely reversed the cisplatin-induced loss of IENFs
IENF density; cisplatin-treated mice, short-term treatment (3 doses)
  IENF density, short-term treatment: did not have any effect on IENF density
